Reference: patent US20110015371A1 (Vertex Pharmaceuticals Incorporated, priority 1994, published 2011)
pIC50, pKi: −log10 of the molar value. Non-standard residues stand in square brackets, D forms with d. Residues, ends and D or L forms follow the SMILES beside them. Pip = O=C(O)[C@@H]1CCCCN1

Key:
[1] = test system: Human Peripheral Blood Mononuclear Cells (PBMC) or Enriched Adherent Mononuclear Cells; experiment: Cell assay: IL-1β assay with human PBMC or enriched adherent mononuclear cells; format: cell-based; conditions: Homo sapiens, PBMC, LPS-stimulated cells, mature IL-1β in supernatant by ELISA
In short: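 Human PBMC (suspension at 6×10^6 cells/ml) or adherent monocytes enriched by 1 h plating (2.5−3.0×10^5 cells/well) were stimulated with 5 ng/ml LPS (final) plus compound (5-6 dilutions, 0.1% DMSO final) for 16-18 hr at 37° C. Mature IL-1β in supernatants quantified by ELISA; duplicate cultures, duplicate ELISAs.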

ICE [2] = molecular target: T1, ICE (Homo sapiens, UniProt P29466); experiment: Enzyme assay with UV-visible substrate (Succinyl-Tyr-Val-Ala-Asp-pNitroanilide); format: biochemical
T1 sequence (P29466 120-297 limits assumed): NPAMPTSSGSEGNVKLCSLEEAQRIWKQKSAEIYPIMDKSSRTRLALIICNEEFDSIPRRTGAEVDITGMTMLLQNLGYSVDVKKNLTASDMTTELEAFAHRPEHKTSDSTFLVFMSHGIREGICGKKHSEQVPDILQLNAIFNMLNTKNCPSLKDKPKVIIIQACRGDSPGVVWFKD
T1 sequence (P29466 317-404 limits assumed): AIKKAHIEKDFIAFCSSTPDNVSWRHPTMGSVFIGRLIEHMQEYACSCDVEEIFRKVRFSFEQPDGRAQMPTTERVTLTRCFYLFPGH
In short: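 Enzyme preincubated with inhibitor in DMSO for 15 min at room temperature, then Succinyl-Tyr-Val-Ala-Asp-pNitroanilide added. pNA release followed at 405-603 nm, 37° C, over 20 minutes; rates (mOD/min) from linear fits. Ki and inhibition mode from fitting rates at varying inhibitor concentrations to standard kinetic equations.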

ICE [3] = molecular target: T1, ICE; experiment: Enzyme assay with fluorescent substrate (Acetyl-Tyr-Val-Ala-Asp-AMC); format: biochemical; conditions: Example 2 table, read-out: Fluorescence Ki
Method: 2. Enzyme Assay with Fluorescent Substrate
This assay is run essentially according to Thornberry et al. (Nature 356: 768-774 (1992)), using substrate 17 referenced in that article. The substrate is: Acetyl-Tyr-Val-Ala-Asp-amino-4-methylcoumarin (AMC). The following components are mixed:
The assay is run in a 96 well microtiter plate. Buffer and ICE are added to the wells. The components are left to incubate at 37° C. for 15 minutes in a temperature-controlled wellplate. After the 15 minute incubation, the reaction is started by adding substrate directly to the wells and the reaction is monitored @37° C. for 30 minutes by following the release of the AMC fluorophore using an excitation wavelength for 380 nm and an emission wavelength of 460 nm. A linear fit of the data for each well is performed and a rate is determined in fluorescence units per second.
For determination of enzyme inhibition constants (Ki) or the mode of inhibition (competitive, uncompetitive or noncompetitive), the rate data determined in the enzyme assays at varying inhibitor concentrations are computer-fit to standard enzyme kinetic equations (see I. H. Segel, Enzyme Kinetics, Wiley-Interscience, 1975).

Structure (SMILES) | melting point | pKi (ICE [2]; Example 4 table) | pIC50 ([1]; Example 4 table) | also measured
O=C[C@H](CC(=O)O)NC(=O)[C@@H]1CCCN1C(=O)c1nc(CCCc2ccccc2)c[nH]1 [Compound 21d, (3S)3-{N-[4-(3-Phenylpropyl)imidazole-2-carbonyl]-L-prolinyl}amino-4-oxo-butanoic acid] | 91 to 94 °C |  | 5.32 | 
O=C[C@H](CC(=O)O)NC(=O)[C@@H]1CCCN2CCC[C@H](NC(=O)CCc3ccccc3)C(=O)N12 [Compound 47b, [3S,(1S,9S)]3-(Octahydro-10-oxo-9-(3-phenylpropionylamino)-6H-pyridazino-[1,2-a][1,2]diazepine-1-carboxamido)-4-oxobutanoic acid] | 87 to 90 °C | 7.57 | 5.74 | 
O=C[C@H](CC(=O)O)NC(=O)Cn1c(Cc2ccccc2)ccc(NS(=O)(=O)CCc2ccccc2)c1=O [Compound 54j, 3(S)3-(6-Benzyl-1,2-dihydro-2-oxo-3-(2-phenylethane-sulphonyl)amino-1-pydridyl)acetylamino-4-oxobutanoic acid] | 102 to 105 °C | 6.55 |  | pIC50 ([1]; Example 6 table): 5.00
O=C[C@H](CC(=O)O)NC(=O)Cn1c(Cc2ccccc2)ccc(NC(=O)OCCc2ccccc2)c1=O [Compound 54k, 3(S)3-(6-Benzyl-1,2-dihydro-2-oxo-3-(2-phenylethoxy)carbonylamino-1-pyridyl)acetylamino-4-oxobutanoic acid] | 84 to 86 °C | 7.07 |  | pIC50 ([1]; Example 6 table): 5.18
O=C(O)CC(NC(=O)Cn1c(Cc2ccccc2)ccc(NC(=O)CCc2ccccc2)c1=O)C(=O)COC(=O)c1c(Cl)cccc1Cl (centres unmarked) [Compound 57b, N-2-(6-Benzyl-1,2-dihydro-2-oxo-3-(3-phenylpropionyl)amino-1-pyridyl)acetyl-3-amino-5-(2,6-dichloro-benzoyloxy)-4-oxo-pentanoic acid] | 116 to 120 °C (dec.) |  |  | pIC50 ([1]; Example 6 table): 5.66
O=C(O)C[C@H](NC(=O)[C@@H]1CCCN2C(=O)CC[C@H](NC(=O)CCc3ccccc3)C(=O)N12)C(=O)CSCc1ccccc1Cl [Compound 125b, [3S(1S,9S)]-3-(6,10-dioxo-1,2,3,4,7,8,9,10-octahydro)-9-(3-phenylpropionyl-amino)-6H-pyridazine[1,2-a][1,2]diazepine-1-carboxamido-5-(2-chlorophenyl-methylthio)-4-oxopentanoic acid] | 76 to 80 °C |  |  | pKi (ICE [2]; Example 6 table): 7.22; pIC50 ([1]; Example 6 table): 6.52
CC(=O)N[C@@H](Cc1ccc(O)cc1)C(=O)N[C@H](C(=O)N1CCCC[C@H]1C(=O)N[C@H](C=O)CC(=O)O)C(C)C [H, N-(N-Acetyl-tyrosinyl-valinyl-pipecolyl)-3-amino-4-oxobutanoic acid] (Ac-YV[Pip]D-aldehyde) |  |  |  | pKi (ICE [2]; Example 2 table): 7.64; pKi (ICE [3]): 8.33; pIC50 ([1]; Example 2 table): 4.96 to 5.22

Second part, led by results:

melting point | pKi (ICE [2]; Example 4 table) | Structure (SMILES) | pIC50 ([1]; Example 4 table) | also measured
101 to 105 °C |  | COc1ccc(CCCc2c[nH]c(C(=O)N3CCC[C@H]3C(=O)N[C@H](C=O)CC(=O)O)n2)cc1 [Compound 21e, (3S)3-{N-[4-[3-(4-Methoxyphenyl)propyl]imidazole-2-carbonyl]-L-prolinyl}amino-4-oxobutanoic acid] | 5.54 | 
114 to 118 °C |  | O=C[C@H](CC(=O)O)NC(=O)[C@@H]1CCCN1C(=O)c1nc(CCCc2ccc(O)cc2)c[nH]1 [Compound 21f, (3S)3-{N-[4-[3-(4-Hydroxyphenyl)propyl]imidazole-2-carbonyl]-L-prolinyl}amino-4-oxobutanoic acid] | 5.54 | 
120 to 124 °C | 5.00 | C[C@H](NC(=O)c1cnc(CCc2ccc(C(F)(F)F)cc2)[nH]1)C(=O)N[C@H](C=O)CC(=O)O [Compound 33b, (3S)3-{N-[2-(2-[4-Trifluoromethylphenyl]ethyl)imidazole-4-carbonyl]-L-alaninyl}-amino-4-oxobutanoic acid] | < 4.52 | pKi (ICE [2]; Example 2 table): 5.00; pIC50 ([1]; Example 2 table): < 4.52
109 to 112 °C |  | C[C@H](NC(=O)c1ccc(Cc2ccccc2)[nH]1)C(=O)N[C@H](C=O)CC(=O)O [Compound 36b, (3S)3-[N-(5-Benzylpyrrole-2-carbonyl)-L-alaninyl]amino-4-oxobutanoic acid] | 4.77 | 
120 to 125 °C | 6.00 | CCCCc1ccc(NC(=O)CCc2ccccc2)c(=O)n1CC(=O)N[C@H](C=O)CC(=O)O [Compound 54d, 3(S)3-(6-Butyl-1,2-dihydro-2-oxo-3-(3-phenylpropionyl)amino-1-pyridyl)acetylamino-4-oxobutanoic acid] |  | 
129 to 138 °C | 5.46 | Cc1ccc(NC(=O)CCc2ccccc2)c(=O)n1CC(=O)N[C@H](C=O)CC(=O)O [Compound 54e, 3(S)3-(1,2-Dihydro-6-methyl-2-oxo-3-(3-phenylpropionyl)amino-1-pyridyl)acetylamino-4-oxobutanoic acid] |  | 
140 to 145 °C (dec.) | 5.32 | O=C[C@H](CC(=O)O)NC(=O)Cn1cccc(NC(=O)CCc2ccccc2)c1=O [Compound 54g, 3(S)3-(1,2-Dihydro-2-oxo-3-(3-phenylpropionyl)amino-1-pyridyl)acetylamino-4-oxobutanoic acid] | < 4.70 | pKi (ICE [2]; Example 2 table): 5.32
